Measurements reported in patent publication US20180371158A1, “PEPTIDOMIMETIC POLYMERS AS CONTROLLED RELEASE MATRICES FOR SMALL MOLECULES, BIOLOGICALS, SYNTHETIC OR SEMI-SYNTHETIC MACROMOLECULES” (priority 2015, published 2018).

Assay: Release study of two dyes from electrospun fiber mat immersed in PBS at 37° C., UV absorbance
Type: physicochemical
Experimental: 6.36 mg rhodamine B was dissolved in 20 mL PBS. 200 μL solution of this solution was taken and 1.8 mL PBS was added to achieve a 10× dilution. The solution was serially diluted from 100× to 1000×, and the corresponding absorbance of each was measured. Rhodamine B concentration vs absorbance was plotted.
The above solution was diluted to 30, 40, 50, 60, 70, 80, 90, 100, 150, 200× concentrations. UV absorbance was measured for each solution.
In a 20 mL scintillation vial, 2 cm×2 cm fiber mat of the polyester was immersed in 20 ml PBS. The vial was stored in 37° C. incubator. 2 mL PBS was removed at each time point and replaced with 2 mL fresh PBS, and UV absorbance was measured. These measurements were performed in triplicates. Dye release was calculated according to the UV absorbance standard curve.

cumulative release of dye from fiber mat (after day 55, fiber mat of p(mPhe-Keto-BocGlu) mixed with rhodamine B and coumarin dye): 17.0±3.2%
cumulative release of dye from fiber mat (after day 90, fiber mat of p(mPhe-Keto-BocGlu) mixed with rhodamine B and coumarin dye): 30.4±6.5%
cumulative release of dye from fiber mat (days 0-7, fiber mat of p(mPhe-Keto-BocGlu) mixed with rhodamine B and coumarin dye): 7.4±1.6%
SMILES: CCN(CC)c1ccc2c(-c3ccccc3C(=O)O)c3ccc(=[N+](CC)CC)cc-3oc2c1.[Cl-] [rhodamine B, Rhodamine B]
